{"source": "patent EP4778522A1", "about": "“USE OF PYRROLOPYRIMIDINE COMPOUND AND COMPOSITION THEREOF” (Guangzhou Joyo Pharmatech Co., Ltd., priority 2023, dated 2025)", "system": "monobenzone-induced mouse vitiligo model", "experiment": "Monobenzone-induced mouse vitiligo model: hair depigmentation area scoring", "format": "in vivo, C57BL/6 mice", "set-up": "Hair depigmentation area scoring: scale not given here", "description": "• 1) Animals: C57BL/6 mice, specific pathogen-free (SPF), with equal numbers of females and males. The mice were 6-8 weeks old at grouping, with 10 mice per group. The animals were provided by Charles River Laboratories. • 2) Reagents, positive drugs and test drugs\nMonobenzone induction method: after 1 week of adaptive feeding of all the animals, modeling was performed and all black hairs on the back of the mice were removed by a shaver. 10 animals were randomly selected as a normal control group and applied with 50 mg of vaseline once a day; and the remaining 80 animals were used for modeling and applied with 50 mg of 40% monobenzone depigmentation ointment once a day. The applying area of the normal control group and the model group was 2 cm*3 cm of the fixed part of the back, and the modeling was continuously performed for 103 days. In order to prevent the phenomenon that the animals lick the drugs, after the animals were applied with a modeling agent, they needed to be separately placed in an independent cage without padding for a period of time to naturally dry the modeling agent, and then they were placed in a rearing cage for normal rearing. During the modeling process, new hairs grown in the alopecic areas of the backs of the mice were shaved by the shaver and then applied with the drug.\nThe 40% monobenzone depigmentation ointment was applied every day. After modeling for 53 days, according to a depigmentation area score (see scoring criteria of Table 9), 70 animals successfully modeled in modeling group (score ≥ 2) were randomly divided into 7 groups with 10 mice per group. The mean depigmentation area score of the animals in each group was basically consistent before the administration, and the day of grouping was defined as day 0 of the administration treatment period. Table 8 Grouping and administration regimen\nDuring the whole experiment process, the mice in normal control group (G1) were applied with 50 mg of vaseline once a day; and the mice in each model group (G2-G8) were applied with 50 mg of 40% monobenzone ointment once a day. After modeling for 53 days, the mice were grouped and subjected to drug treatment after grouping consecutively for 50 days. The modeling operation was maintained during the drug intervention period. The mice were applied with the drug twice a day for treatment at an interval of 6 hours or more. […]", "note": "Marks after values point to notes of the source that are not given here."}
{"molecule": "CN(c1ncnc2[nH]ccc12)[C@@H]1CCc2cc(C#N)nn2C1", "note": "[compound I]", "values": [{"measurement": "Hair depigmentation area scoring", "setting": "Day 0 (before administration), 0.5% compound I gel group", "result": 3.80}, {"measurement": "Hair depigmentation area scoring", "setting": "Day 0 (before administration), 1% compound I gel group", "result": 3.70}, {"measurement": "Hair depigmentation area scoring", "setting": "Day 0 (before administration), 2% compound I gel group", "result": 3.80}, {"measurement": "Hair depigmentation area scoring", "setting": "Day 10, 0.5% compound I gel, 30 mg topical twice a day", "result": "3.60 **"}, {"measurement": "Hair depigmentation area scoring", "setting": "Day 10, 1% compound I gel, 30 mg topical twice a day", "result": "3.90 **"}, {"measurement": "Hair depigmentation area scoring", "setting": "Day 10, 2% compound I gel, 30 mg topical twice a day", "result": "4.00 **"}, {"measurement": "Hair depigmentation area scoring", "setting": "Day 20, 0.5% compound I gel, 30 mg topical twice a day", "result": "3.60 **"}, {"measurement": "Hair depigmentation area scoring", "setting": "Day 20, 1% compound I gel, 30 mg topical twice a day", "result": "3.60 **"}, {"measurement": "Hair depigmentation area scoring", "setting": "Day 20, 2% compound I gel, 30 mg topical twice a day", "result": "3.50 **"}, {"measurement": "Hair depigmentation area scoring", "setting": "Day 30, 0.5% compound I gel, 30 mg topical twice a day", "result": "3.30 **"}, {"measurement": "Hair depigmentation area scoring", "setting": "Day 30, 1% compound I gel, 30 mg topical twice a day", "result": "3.40 **"}, {"measurement": "Hair depigmentation area scoring", "setting": "Day 30, 2% compound I gel, 30 mg topical twice a day", "result": "3.10 **"}, {"measurement": "Hair depigmentation area scoring", "setting": "Day 35, 0.5% compound I gel, 30 mg topical twice a day", "result": "3.20 **"}, {"measurement": "Hair depigmentation area scoring", "setting": "Day 35, 1% compound I gel, 30 mg topical twice a day", "result": "3.10 **"}, {"measurement": "Hair depigmentation area scoring", "setting": "Day 35, 2% compound I gel, 30 mg topical twice a day", "result": "2.90 **"}, {"measurement": "Hair depigmentation area scoring", "setting": "Day 38, 0.5% compound I gel, 30 mg topical twice a day", "result": "3.20 **"}, {"measurement": "Hair depigmentation area scoring", "setting": "Day 38, 1% compound I gel, 30 mg topical twice a day", "result": "2.90 **"}, {"measurement": "Hair depigmentation area scoring", "setting": "Day 38, 2% compound I gel, 30 mg topical twice a day", "result": "2.60 **"}, {"measurement": "Hair depigmentation area scoring", "setting": "Day 41, 0.5% compound I gel, 30 mg topical twice a day", "result": "2.90 **"}, {"measurement": "Hair depigmentation area scoring", "setting": "Day 41, 1% compound I gel, 30 mg topical twice a day", "result": "2.60 **"}, {"measurement": "Hair depigmentation area scoring", "setting": "Day 41, 2% compound I gel, 30 mg topical twice a day", "result": "2.30 **"}, {"measurement": "Hair depigmentation area scoring", "setting": "Day 44, 0.5% compound I gel, 30 mg topical twice a day", "result": "2.80 **"}, {"measurement": "Hair depigmentation area scoring", "setting": "Day 44, 1% compound I gel, 30 mg topical twice a day", "result": "2.50 **"}, {"measurement": "Hair depigmentation area scoring", "setting": "Day 44, 2% compound I gel, 30 mg topical twice a day", "result": "2.20 **"}, {"measurement": "Hair depigmentation area scoring", "setting": "Day 47, 0.5% compound I gel, 30 mg topical twice a day", "result": "2.60 **"}, {"measurement": "Hair depigmentation area scoring", "setting": "Day 47, 1% compound I gel, 30 mg topical twice a day", "result": "2.40 **"}, {"measurement": "Hair depigmentation area scoring", "setting": "Day 47, 2% compound I gel, 30 mg topical twice a day", "result": "2.20 **"}, {"measurement": "mean inhibitory rate of depigmentation area scores", "setting": "Day 50, 0.5% compound I gel, 30 mg (5 mg/cm^2), compared with the model control group", "result": 52.0, "unit": "%"}, {"measurement": "Hair depigmentation area scoring", "setting": "Day 50, 0.5% compound I gel, 30 mg topical twice a day", "result": "2.50 **"}, {"measurement": "mean inhibitory rate of depigmentation area scores", "setting": "Day 50, 1% compound I gel, 30 mg (5 mg/cm^2), compared with the model control group", "result": 54.9, "unit": "%"}, {"measurement": "Hair depigmentation area scoring", "setting": "Day 50, 1% compound I gel, 30 mg topical twice a day", "result": "2.30 **"}, {"measurement": "mean inhibitory rate of depigmentation area scores", "setting": "Day 50, 2% compound I gel, 30 mg (5 mg/cm^2), compared with the model control group", "result": 58.8, "unit": "%"}, {"measurement": "Hair depigmentation area scoring", "setting": "Day 50, 2% compound I gel, 30 mg topical twice a day", "result": "2.10 **"}, {"measurement": "mean inhibitory rate of depigmentation area scores", "setting": "day 50, high concentration (2%) compound I gel, compared with the blank preparation group", "result": 51.2, "unit": "%"}, {"measurement": "mean inhibitory rate of depigmentation area scores", "setting": "day 50, low concentration (0.5%) compound I gel, compared with the blank preparation group", "result": 41.9, "unit": "%"}, {"measurement": "mean inhibitory rate of depigmentation area scores", "setting": "day 50, medium concentration (1%) compound I gel, compared with the blank preparation group", "result": 46.5, "unit": "%"}]}
